Key:
HDAC1 = molecular target: T1, HDAC1 (Homo sapiens, UniProt Q13547); assay: HDAC1 assay (Fluor-de-Lys fluorescent deacetylase assay); format: biochemical; details: read-out: hHDAC IC50
T1 construct: made in house
Experimental: The HDAC1 assay is used to quantify the histone deacetylase (HDAC) activity. The assay is performed in 384 well microtiter plates by pre-incubating serial dilutions of the compounds with a fixed concentration of HeLa nuclear extract or purified HDAC1 and then adding an acetylated lysine-containing substrate/developer that fluoresces upon deacetylation.
Reagents of the HDAC Fluorescent Activity Assay are purchased from BioMol Research Laboratories (Plymouth Meeting, Pa.) and feature the Fluor-de-Lys™ Substrate/Developer System.
TSA Stock: TSA is provided as a 10 mM stock solution in 100% dimethylsulfoxide (DMSO). […] The final concentration in the assay is 20 uM.
3 uM [final] TSA to this solution increases its ability to stop the reaction.
HDAC1 Working Solution: The HDAC1 enzyme is diluted in assay buffer prior to each use from a fresh aliquot of enzyme. The final concentration in the assay is 1-2 nM.
Compounds: Test compounds are directly transferred from a 100% DMSO solution into assay plates by spotting nanoliters of solutions by an acoustic dispenser (ATS-100, EDC biosystems, US).
HeLa cells transiently transfected with pCDNA3-HDAC1-FLAG are grown to 80% confluence on 10 cm culture dishes in DMEM, 10% Fetal bovine serum supplemented with antibiotics and glutamine. Cells are washed with 10 ml cold PBS and scraped into 2 ml of PBS. Cells are centrifuged for 5 minutes at 800×g at 4° C., washed with 30 ml PBS and resuspended in 10 ml PBS, counted, re-centrifuged and frozen at −80° C.
The frozen cell pellet is re-suspended in 1 ml of hypotonic lysis buffer (LB: 20 mM Hepes pH7.9, 0.25 mM EDTA, 10% glycerol) containing COMPLETE protease inhibitor and incubated on ice for 15 minutes, followed by homogenization on a 2-ml DounceB homogenizer (25 strokes). 150 mM KCl and 0.5% NP-40 are added to the homogenate and the solution is sonicated twice for 30 seconds (output5/6, duty cycle 90) and incubated for 1 hour at 4° C. After a 30 minutes centrifugation at 12000 rpm and 4° C. the supernatant (soluble extract) is collected and protein concentration is determined using the BIORAD assay.
Anti-FLAG M2 affinity resin (Sigma) is washed three times with TBS and twice with LB. 10 μl of the LB-washed resin/mg of protein (2-3 ug of Flagged-HDAC1) are added to the soluble extract (1 mL) and incubated overnight at 4° C. with gentle mixing. The resin is then collected by centrifugation, washed once with LB, twice with LB+0.1% NP40 and twice with elution buffer (50 mM Hepes pH 7.4, 5% glycerol, 100 mM KCl, 0.01% Triton X-100).
The concentration of purified HDAC is determined by Western blot analysis.

[1] = test system: human γ-globin promoter (EGFP reporter) in K562 cells; assay: HbF activation assay on K562 (EGFP/RFP reporter model system for screening of inducers of fetal hemoglobin); format: cell-based; details: 60 hours
Source text: In order to test several compounds, a model system was produced based on previous findings present in the literature. The K562 erythroid-like cell lines, isolated and characterized by Lozzio & Lozzio (Blood, 45(3), pp 321-334) from a patient with chronic myelogenous leukemia in blast crisis, have been extensively employed as a useful in vitro model to study the molecular mechanism(s) regulating the expression of embryonic and fetal human globin genes, as well as for screening of new differentiation-inducing compounds. A stable cell line where reporter genes encoding green EGFP and far-red fluorescent protein red-FP are placed under the control of the human γ-globin or β-globin promoters respectively was used (see Vadolas et al, Hum. Mol. Genet. 2004, 13, 2, 223-233 for details). The modified 3-cluster also contains the upstream regulatory region called LCR. This cell line grows in suspension at 37° C. and 5% CO2 in humidified atmosphere in the following medium: DMEM, 10% foetal bovine serum, glutamine and antibiotics (penicillin and streptomycin);
The assay procedures is as follows: • Single concentration compounds or serially diluted samples are transferred to an empty assay plates by a spotter (ATS-100, EDC Biosystems, USA) in order to have a final concentration of DMSO of 0.25% in 50 μL of cell culture. Source plats contains compounds dissolved in 100% DMSO • Black, transparent bottom, 384 wells, tissue culture treated plates are used as assay plates. • Assay plates containing spotted compounds are filled with a suspension of cell in the described assay medium. The final cell concentration is of 1000 cells per well. • Cells are incubated in humidified atmosphere, 37° C.-5% CO2, for 60 hours • Cell nuclei are stained by adding 10 ul (6 μM; 1 μM final) Hoechst 33342 (Life Technologies, USA) • The cell associated intensity is read by a plate based cytometer (ACUMEN explorer, TTP Labtech, UK) • The nuclei count is used to assess the cell proliferation/death and to normalize the total EGFP/RFP intensity. HbF Activation Assay in Human Cell Line K562
The compounds of the invention were tested in the HbF activation assay on K562, as model system for screening of potential inducers of fetal hemoglobin.

HDAC in Hela cells = assay: HDAC Hela Cell Based assay

T1 sequence (Q13547 whole entry): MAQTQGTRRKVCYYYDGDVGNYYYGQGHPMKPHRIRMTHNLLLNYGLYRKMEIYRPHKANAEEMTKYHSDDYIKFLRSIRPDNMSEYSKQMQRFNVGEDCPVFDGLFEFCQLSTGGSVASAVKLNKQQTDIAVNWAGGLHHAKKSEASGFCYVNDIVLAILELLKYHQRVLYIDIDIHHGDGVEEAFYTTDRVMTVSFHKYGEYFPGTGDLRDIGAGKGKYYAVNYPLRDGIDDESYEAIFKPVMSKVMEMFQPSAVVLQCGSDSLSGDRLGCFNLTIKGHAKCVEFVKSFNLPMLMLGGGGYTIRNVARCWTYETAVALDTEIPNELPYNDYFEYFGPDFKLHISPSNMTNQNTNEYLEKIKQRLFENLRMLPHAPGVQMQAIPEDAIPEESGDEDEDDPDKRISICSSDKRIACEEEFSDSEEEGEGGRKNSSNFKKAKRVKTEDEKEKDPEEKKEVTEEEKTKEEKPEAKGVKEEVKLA

SMILES | IC50 (HDAC1) | EC50 [1] | IC50 (HDAC in Hela cells)
CCC(=O)CCCCC[C@H](NC(=O)c1csc(CN(C)C)n1)c1ncc(-c2cc3ccccc3nc2OC)o1 [Compound 103, (S)-2-((dimethylamino)methyl)-N-(1-(5-(2-methoxyquinolin-3-yl)oxazol-2-yl)-7-oxononyl)thiazole-4-carboxamide] | 0.1 to 1 µM | > 1 µM | 0.1 to 1 µM
CCC(=O)CCCCC[C@H](NC(=O)C1(C)CN(C)C1)c1ncc(-c2cc3ccccc3nc2OC)o1 [Compound 84, (S)-N-(1-(5-(2-methoxyquinolin-3-yl)oxazol-2-yl)-7-oxononyl)-1,3-dimethylazetidine-3-carboxamide] | < 0.1 µM | 0.1 to 1 µM | 0.1 to 1 µM
CCC(=O)CCCCC[C@H](NC(=O)C1CCN1C)c1ncc(-c2cc3ccccc3nc2OC)o1 (stereo partly drawn) [Compound 85, N-((S)-1-(5-(2-methoxyquinolin-3-yl)oxazol-2-yl)-7-oxononyl)-1-methylazetidine-2-carboxamide] | < 0.1 µM | > 1 µM | 0.1 to 1 µM
CCC(=O)CCCCC[C@H](NC(=O)c1ccnn1C)c1ncc(-c2cc3ccccc3nc2OC)o1 [Compound 87, (S)-N-(1-(5-(2-methoxyquinolin-3-yl)oxazol-2-yl)-7-oxononyl)-1-methyl-1H-pyrazole-5-carboxamide] | < 0.1 µM | 0.1 to 1 µM | 0.1 to 1 µM
CCC(=O)CCCCC[C@H](NC(=O)Cn1cncn1)c1ncc(-c2cc3ccccc3nc2OC)o1 [Compound 86, (S)-N-(1-(5-(2-methoxyquinolin-3-yl)oxazol-2-yl)-7-oxononyl)-2-(1H-1,2,4-triazol-1-yl)acetamide] | < 0.1 µM | > 1 µM | 0.1 to 1 µM
CCC(=O)CCCCC[C@H](NC(=O)c1ccn(C)n1)c1ncc(-c2cc3ccccc3nc2OC)o1 [Compound 98, (S)-N-(1-(5-(2-methoxyquinolin-3-yl)oxazol-2-yl)-7-oxononyl)-1-methyl-1H-pyrazole-3-carboxamide] | < 0.1 µM | > 1 µM | 0.1 to 1 µM
CCC(=O)CCCCC[C@H](NC(=O)C(=O)N1CCN(C)CC1)c1nnc(-c2cc3ccccc3nc2OC)o1 [Compound 46, (S)-N-(1-(5-(2-methoxyquinolin-3-yl)-1,3,4-oxadiazol-2-yl)-7-oxononyl)-2-(4-methylpiperazin-1-yl)-2-oxoacetamide] | < 0.1 µM | > 1 µM | 0.1 to 1 µM
CCC(=O)CCCCC[C@H](NC(=O)[C@@H]1C[C@H](F)CN1C)c1ncc(-c2cc3ccccc3nc2OC)o1 [Compound 66, (2S,4S)-4-fluoro-N-((S)-1-(5-(2-methoxyquinolin-3-yl)oxazol-2-yl)-7-oxononyl)-1-methylpyrrolidine-2-carboxamide] | < 0.1 µM | > 1 µM | 0.1 to 1 µM
CCC(=O)CCCCC[C@H](NC(=O)C(C)n1nc(C)cc1C)c1ncc(-c2cc3ccccc3nc2OC)o1 (stereo partly drawn) [Compound 95, 2-(3,5-dimethyl-1H-pyrazol-1-yl)-N-((S)-1-(5-(2-methoxyquinolin-3-yl)oxazol-2-yl)-7-oxononyl)propanamide] | < 0.1 µM | > 1 µM | 0.1 to 1 µM
CCC(=O)CCCCC[C@H](NC(=O)C1CCN(C)C1)c1ncc(-c2ccccc2)o1 (stereo partly drawn) [Compound 8, 1-methyl-N-((S)-7-oxo-1-(5-phenyloxazol-2-yl)nonyl)pyrrolidine-3-carboxamide] | < 0.1 µM | > 1 µM | > 1 µM
CCC(=O)CCCCC[C@H](NC(=O)CC1CN(C)C1)c1ncc(-c2cc3ccccc3nc2OC)o1 [Compound 108, (S)-N-(1-(5-(2-methoxyquinolin-3-yl)oxazol-2-yl)-7-oxononyl)-2-(1-methylazetidin-3-yl)acetamide] | < 0.1 µM | 0.1 to 1 µM | < 0.1 µM
CCC(=O)CCCCC[C@H](NC(=O)Cc1nonc1C)c1ncc(-c2cc3ccccc3nc2OC)o1 [Compound 77, (S)-N-(1-(5-(2-methoxyquinolin-3-yl)oxazol-2-yl)-7-oxononyl)-2-(4-methyl-1,2,5-oxadiazol-3-yl)acetamide] | < 0.1 µM | > 1 µM | 0.1 to 1 µM
CCC(=O)CCCCC[C@H](NC(=O)CCn1c(CC)nc2ccccc21)c1ncc(-c2ccccc2)o1 [Compound 26, (S)-3-(2-ethyl-1H-benzo[d]imidazol-1-yl)-N-(7-oxo-1-(5-phenyloxazol-2-yl)nonyl)propanamide] | 0.1 to 1 µM | > 1 µM | > 1 µM
CCC(=O)CCCCC[C@H](NC(=O)Cn1ccnn1)c1ncc(-c2cc3ccccc3nc2OC)o1 [Compound 59, (S)-N-(1-(5-(2-methoxyquinolin-3-yl)oxazol-2-yl)-7-oxononyl)-2-(1H-1,2,3-triazol-1-yl)acetamide] | < 0.1 µM | > 1 µM | 0.1 to 1 µM
CCC(=O)CCCCC[C@H](NC(=O)C1CN(C)C1)c1ncc(-c2ccccc2)o1 [Compound 32, (S)-1-methyl-N-(7-oxo-1-(5-phenyloxazol-2-yl)nonyl)azetidine-3-carboxamide] | < 0.1 µM | > 1 µM | > 1 µM
CCC(=O)CCCCC[C@H](NC(=O)c1snnc1C)c1ncc(-c2cc3ccccc3nc2OC)o1 [Compound 101, (S)-N-(1-(5-(2-methoxyquinolin-3-yl)oxazol-2-yl)-7-oxononyl)-4-methyl-1,2,3-thiadiazole-5-carboxamide] | < 0.1 µM | > 1 µM | 0.1 to 1 µM
CCC(=O)CCCCC[C@H](NC(=O)C(=O)N(C)C)c1nnc(-c2cc3ccccc3nc2OC)o1 [Compound 45, (S)-N1-(1-(5-(2-methoxyquinolin-3-yl)-1,3,4-oxadiazol-2-yl)-7-oxononyl)-N2,N2-dimethyloxalamide] | < 0.1 µM | > 1 µM | 0.1 to 1 µM
CCC(=O)CCCCC[C@H](NC(=O)C1CN(C(C)=O)C1)c1ncc(-c2ccc(-n3cccn3)cc2)o1 [Compound 62, (S)-N-(1-(5-(4-(1H-pyrazol-1-yl)phenyl)oxazol-2-yl)-7-oxononyl)-1-acetylazetidine-3-carboxamide] | < 0.1 µM | > 1 µM | 0.1 to 1 µM
CCC(=O)CCCCC[C@H](NC(=O)c1cc(C)nn1C)c1ncc(-c2cc3ccccc3nc2OC)o1 [Compound 96, (S)-N-(1-(5-(2-methoxyquinolin-3-yl)oxazol-2-yl)-7-oxononyl)-1,3-dimethyl-1H-pyrazole-5-carboxamide] | < 0.1 µM | > 1 µM | 0.1 to 1 µM
CCC(=O)CCCCC[C@H](NC(=O)c1ccns1)c1ncc(-c2cc3ccccc3nc2OC)o1 [Compound 100, (S)-N-(1-(5-(2-methoxyquinolin-3-yl)oxazol-2-yl)-7-oxononyl)isothiazole-5-carboxamide] | < 0.1 µM | 0.1 to 1 µM | 0.1 to 1 µM
